# Values joined by “and” are separate entries in the source; they are usually repeats but may differ in a detail not shown here. Equal entries are not always repeated.
# Biological target: T1, human A2a receptor (Homo sapiens, UniProt P29274)
# T1 construct: purchased Perkin-Elmer RBHA2AM400UA; host or cells: HEK293 cell membranes
# Assay: A2a receptor competition binding assay using Scintillation Proximity technology
# Conditions: membranes from HEK293 cells expressing human A2a receptor; 0.5 nM tritiated radioligand; SPA beads; 1 h room temperature
# In short: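 Membranes of HEK293 cells expressing human A2a, pretreated with adenosine deaminase, incubated 1 h at room temperature with 0.5 nM tritiated pyrazolotriazolopyrimidine antagonist (final) and compound (3000 to 0.15 nM) on WGA SPA beads in Ca/Mg-free PBS with 10 mM MgCl2. Ki from EC50 via Cheng-Prusoff.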
# T1 sequence (P29274 whole entry): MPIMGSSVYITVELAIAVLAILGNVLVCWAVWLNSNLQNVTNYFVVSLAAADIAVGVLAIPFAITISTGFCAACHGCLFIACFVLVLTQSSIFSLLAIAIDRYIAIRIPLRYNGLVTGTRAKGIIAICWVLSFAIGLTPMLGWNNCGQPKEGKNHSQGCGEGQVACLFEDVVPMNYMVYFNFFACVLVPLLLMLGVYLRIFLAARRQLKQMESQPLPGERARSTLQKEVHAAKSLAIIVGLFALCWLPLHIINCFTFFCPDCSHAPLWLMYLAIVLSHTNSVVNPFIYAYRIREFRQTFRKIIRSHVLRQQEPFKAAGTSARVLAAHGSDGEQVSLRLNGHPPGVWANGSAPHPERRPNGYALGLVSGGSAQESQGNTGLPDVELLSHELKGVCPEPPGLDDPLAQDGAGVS
row,SMILES,EC50
1,Nc1nc2cc(F)ccc2c2nc(CCN3CCCc4ccccc43)nn12 [Ex-94],27.3 nM
2,Nc1nc2cc(F)c(F)cc2c2nc(CCN3Cc4cccnc4C3)nn12 [Ex-99],112 nM
3,CC[C@@H](Cc1nc2c3cccc(OC)c3nc(N)n2n1)N1Cc2cccnc2C1 [Ex-113],22.8 nM
4,"COc1cccc2c1nc(N)n1nc(CCN3CCCCc4cccnc43)nc21 [Ex-20, 2-(2-(7,8-dihydro-5H-pyrido[2,3-b]azepin-9(6H)-yl)ethyl)-7-methoxy-[1,2,4]triazolo[1,5-c]quinazolin-5-amine]",12.8 nM
5,"Nc1nc2c(F)cccc2c2nc(CCN3Cc4cccnc4C3)nn12 [Ex-83, 2-[2-(5,7-dihydro-6H-pyrrolo[3,4-b]pyridin-6-yl)ethyl]-7-fluoro[1,2,4]triazolo[1,5-c]quinazolin-5-amine]",15.9 nM
6,Nc1nc2c(Br)cccc2c2nc(CN3CCc4cccnc4C3)nn12 [Ex-194],8.8 nM
7,"COc1cccc2c1nc(N)n1nc(CN3CCn4c(nnc4C(=O)NC(C)(C)C)C3)nc21 [Ex-143, 7-((5-amino-7-methoxy-[1,2,4]triazolo[1,5-c]quinazolin-2-yl)methyl)-N-tert-butyl-5,6,7,8-tetrahydro-[1,2,4]triazolo[4,3-a]pyrazine-3-carboxamide]",74.4 nM
8,"COc1cccc2c1nc(N)n1nc(CCN3CCCc4c3c(C(F)(F)F)nn4C)nc21 [Ex-43, 7-methoxy-2-(2-(1-methyl-3-(trifluoromethyl)-6,7-dihydro-1H-pyrazolo[4,3-b]pyridin-4(5H)-yl)ethyl)-[1,2,4]triazolo[1,5-c]quinazolin-5-amine]",8.4 nM
9,"COc1cccc2c1nc(N)n1nc(CCN3Cc4cnc(C)nc4C3)nc21 [Ex-23, 7-methoxy-2-(2-(2-methyl-5H-pyrrolo[3,4-d]pyrimidin-6(7H)-yl)-ethyl)-[1,2,4]triazolo[1,5-c]quinazolin-5-amine]",4.4 nM and 6.6 nM
10,"Nc1nc2c(OCF)cccc2c2nc(CN3CCc4cccnc4C3)nn12 [Ex-205, 2-((5,6-dihydro-1,7-naphthyridin-7(8H)-yl)methyl)-7-(fluoromethoxy)-[1,2,4]triazolo[1,5-c]quinazolin-5-amine]",10.9 nM

# Second part, the molecule after the results:
row,EC50,SMILES
1,1 nM,"CC[C@H](Cc1nc2c3cccc(OC)c3nc(N)n2n1)N1Cc2nc(C)oc2C1 [Ex-248, (R)-7-methoxy-2-(2-(2-methyl-4H-pyrrolo[3,4-d]oxazol-5(6H)-yl)butyl)-[1,2,4]triazolo[1,5-c]quinazolin-5-amine]"
2,5.9 nM,"COc1cccc2c1nc(N)n1nc(CN3Cc4ccc(F)cc4C3)nc21 [Ex-117, 2-((5-fluoroisoindolin-2-yl)methyl)-7-methoxy-[1,2,4]triazolo[1,5-c]quinazolin-5-amine]"
3,5.7 nM,"COc1cccc2c1nc(N)n1nc(C[C@H](C)N3CCc4oc(C)nc4C3)nc21 [Ex-215, (S)-7-methoxy-2-(2-(2-methyl-6,7-dihydrooxazolo[4,5-c]pyridin-5(4H)-yl)propyl)-[1,2,4]triazolo[1,5-c]quinazolin-5-amine]"
4,6.9 nM,COc1cccc2c1nc(N)n1nc(C[C@@H](C)N3Cc4cccnc4C3)nc21 [Ex-107]
5,1.5 nM,"COc1cccc2c1nc(N)n1nc(CCN3Cc4[nH]nc(-c5ccccc5)c4C3)nc21 [Ex-50, 7-methoxy-2-(2-(3-phenylpyrrolo[3,4-c]pyrazol-5(1H,4H,6H)-yl)ethyl)-[1,2,4]triazolo[1,5-c]quinazolin-5-amine]"
6,0.1 nM,"COc1cccc2c1nc(N)n1nc(CCN3Cc4nc(C(C)C)sc4C3)nc21 [Ex-242, 2-(2-(2-isopropyl-4H-pyrrolo[3,4-d]thiazol-5(6H)-yl)ethyl)-7-methoxy-[1,2,4]triazolo[1,5-c]quinazolin-5-amine]"
7,6.1 nM,"COc1cccc2c1nc(N)n1nc(C[C@H](C)N3CCc4nc(C)oc4C3)nc21 [Ex-212, (S)-7-methoxy-2-(2-(2-methyl-6,7-dihydrooxazolo[5,4-c]pyridin-5(4H)-yl)propyl)-[1,2,4]triazolo[1,5-c]quinazolin-5-amine]"
